# Results reported in PubChem BioAssay (NCI).
#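 Values below derive from 48-hour exposures of cells grown in 96-well plates, with endpoints linearly interpolated between the two concentrations bracketing the appropriate inhibition level. The concentration for 50% growth inhibition is given as GI50. TGI marks complete inhibition of growth.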
# Columns and labels:
# Experiment in all cases: NCI anticancer screen, dose series, 48 h
# HCC-2998 colon = tested on: HCC-2998 colon
# A498 renal = tested on: A498 renal
# LOX IMVI melanoma = tested on: LOX IMVI melanoma
# NCI-H522 lung = tested on: NCI-H522 lung
# DU-145 prostate = tested on: DU-145 prostate
# SF-268 CNS = tested on: SF-268 CNS
# UO-31 renal = tested on: UO-31 renal
# 786-0 renal = tested on: 786-0 renal
# SF-295 CNS = tested on: SF-295 CNS
# PC-3 prostate = tested on: PC-3 prostate
Compound,TGI (HCC-2998 colon),TGI (A498 renal),TGI (LOX IMVI melanoma),TGI (NCI-H522 lung),TGI (DU-145 prostate),TGI (SF-268 CNS),TGI (UO-31 renal),TGI (786-0 renal),TGI (SF-295 CNS),TGI (PC-3 prostate),GI50 (A498 renal),GI50 (UO-31 renal),GI50 (SF-295 CNS)
CCOC(=O)/C=C(/C)Nc1nc2c(c(C(=O)OC)c1C#N)CCCC2,> 100 µM,> 100 µM,> 100 µM,> 100 µM,> 100 µM,> 100 µM,> 100 µM,> 100 µM,> 100 µM,> 100 µM,–,–,–
Cc1cc(S(=O)(=O)/N=C(\[N-]S(=O)(=O)c2cc(Cl)sc2Cl)[n+]2ccc(N(C)C)cc2)c(S)cc1Cl,> 100 µM,82.5 µM,> 100 µM,86.1 µM,> 100 µM,> 100 µM,56 µM,> 100 µM,> 100 µM,> 100 µM,–,–,–
COc1ccc(/C=C2\C[C@H]3[C@@H]4CCC5=CC(=O)CC[C@]5(C)[C@H]4CC[C@]3(C)C2=O)cc1OC,> 100 µM,> 100 µM,> 100 µM,9.87 µM,> 100 µM,> 100 µM,6.85 µM,> 100 µM,> 100 µM,> 100 µM,–,–,–
CCCCCCCCCCCCCCCCCCOCC(O)COP(=O)(O)OCC1OC(n2ccc(N)nc2=O)C(O)C1O (centres undefined),> 100 µM,40.6 µM,31.1 µM,41.8 µM,> 100 µM,49.8 µM,–,26.5 µM,68.8 µM,20.7 µM,–,–,–
COc1cc(OC)c2[nH]c3c(O)c(-c4c(C)cc5c([nH]c6c(OC)cc(OC)cc65)c4O)c(C)cc3c2c1,15.3 µM,14.8 µM,14.6 µM,16.6 µM,15 µM,15.9 µM,13.3 µM,15.1 µM,21.8 µM,15.2 µM,7.82 µM,6.83 µM,10.2 µM
O=C(c1ccccc1)N1C(=S)N(c2ccccn2)C(=Nc2ccccc2)C1=Nc1ccccc1,> 100 µM,> 100 µM,> 48.9 µM,5.61 µM,> 100 µM,> 100 µM,27.1 µM,> 82.8 µM,> 73.8 µM,35.8 µM,–,–,–
Fc1ccc(C(OCCN2CC3CCC(C2)N3CCCc2ccccc2)c2ccc(F)cc2)cc1,8.06 µM,17.7 µM,13 µM,5.15 µM,22.6 µM,15.1 µM,19.4 µM,13.4 µM,11.8 µM,10.4 µM,–,–,–
CCOP(=O)(OCC)OC1c2[nH]cc(C(=O)OCc3ccccc3)c2-c2cc(C(=O)OC)[nH]c2C1OC (centres undefined),> 78.9 µM,> 100 µM,> 41.4 µM,29.1 µM,89.8 µM,> 96 µM,> 59.1 µM,27.4 µM,28.8 µM,> 100 µM,–,–,–
CC1=C(C(=O)N[C@@H](CC(C)C)C(=O)O)N2C(=O)[C@@H](NC(=O)C(N)c3ccccc3)[C@H]2SC1 (some centres undefined),> 100 µM,> 100 µM,> 100 µM,> 100 µM,> 100 µM,> 100 µM,–,> 100 µM,> 100 µM,> 100 µM,–,–,–
C#CC1(O)CCCCCCCCC2(CCCCCCCC1)OCCO2,29.5 µM,27.8 µM,38.1 µM,6.42 µM,31.1 µM,34.2 µM,–,31.4 µM,34.7 µM,25.9 µM,–,–,–
COc1ccc(NC(=S)c2ccoc2C)cc1CC(=O)OC(C)C,> 100 µM,–,39.2 µM,> 100 µM,> 100 µM,> 100 µM,> 100 µM,> 100 µM,> 100 µM,62.3 µM,–,–,–
O=C(N/N=C(/COc1ccccc1)N=Cc1cccnc1)c1ccncc1,> 100 µM,> 100 µM,> 100 µM,> 100 µM,> 100 µM,> 100 µM,–,> 100 µM,> 100 µM,> 100 µM,–,–,–
Cc1cnc2sn(-c3ccc(Br)cc3)c(=O)c2c1,> 100 µM,–,> 100 µM,16.9 µM,> 100 µM,> 100 µM,> 100 µM,> 100 µM,97.8 µM,> 100 µM,–,–,–
CCOC(=O)NN(C(=O)OCC)c1c(C)cc(C)cc1C,> 100 µM,> 100 µM,> 100 µM,> 100 µM,> 100 µM,> 100 µM,> 100 µM,> 100 µM,–,> 100 µM,–,–,–
Cn1c(N)nc(-c2ccc(Cl)cc2)c1SSc1c(-c2ccc(Cl)cc2)nc(N)n1C,20.7 µM,27.8 µM,–,3.62 µM,25.4 µM,7.1 µM,3.24 µM,3.43 µM,21.4 µM,3.38 µM,–,–,–
CSc1nc2c(c(=O)[nH]1)N=C(c1ccccc1)CC(c1ccccc1)N2 (centres undefined),> 100 µM,> 100 µM,> 100 µM,43.9 µM,> 100 µM,–,> 100 µM,> 100 µM,> 100 µM,> 100 µM,–,–,–
